Measurements reported in ChEMBL document CHEMBL4507320, “Data for DCP probe NVS-MALT1” (2021).

Tests used:
[1] = molecular target: Activin receptor type-1-like (Homo sapiens) (UniProt P37023); conditions: Compound concentration 1000.0 nM
[2] = tested on: ALK tyrosine kinase receptor (Homo sapiens), Q9UM73 [C1156Y]; conditions: Compound concentration 1000.0 nM
[3] = molecular target: Mitogen-activated protein kinase kinase kinase 6 (Homo sapiens) (UniProt O95382); conditions: Compound concentration 1000.0 nM
[4] = molecular target: Cyclin-dependent kinase 11B (Homo sapiens) (UniProt P21127); conditions: Compound concentration 1000.0 nM
[5] = molecular target: Cyclin-dependent kinase 3 (Homo sapiens) (UniProt Q00526); conditions: Compound concentration 1000.0 nM
[6] = molecular target: Cyclin-dependent kinase 8 (Homo sapiens) (UniProt P49336); conditions: Compound concentration 1000.0 nM
[7] = molecular target: Cyclin-dependent kinase-like 2 (Homo sapiens) (UniProt Q92772); conditions: Compound concentration 1000.0 nM
[8] = molecular target: Macrophage colony-stimulating factor 1 receptor (Homo sapiens) (UniProt P07333); conditions: Compound concentration 1000.0 nM
[9] = molecular target: Ephrin type-B receptor 2 (Homo sapiens) (UniProt P29323); conditions: Compound concentration 1000.0 nM
[10] = molecular target: Receptor tyrosine-protein kinase erbB-3 (Homo sapiens) (UniProt P21860); conditions: Compound concentration 1000.0 nM
[11] = tested on: Receptor-type tyrosine-protein kinase FLT3 (Homo sapiens), P36888 [UNDEFINED MUTATION]; conditions: Compound concentration 1000.0 nM
[12] = tested on: Receptor-type tyrosine-protein kinase FLT3 (Homo sapiens), P36888 [K663Q]; conditions: Compound concentration 1000.0 nM
[13] = molecular target: Serine/threonine-protein kinase ICK (Homo sapiens) (UniProt Q9UPZ9); conditions: Compound concentration 1000.0 nM
[14] = molecular target: Inhibitor of nuclear factor kappa-B kinase subunit epsilon (Homo sapiens) (UniProt Q14164); conditions: Compound concentration 1000.0 nM
Chain of Inhibitor of nuclear factor kappa-B kinase subunit epsilon (Homo sapiens) (Q14164 whole entry): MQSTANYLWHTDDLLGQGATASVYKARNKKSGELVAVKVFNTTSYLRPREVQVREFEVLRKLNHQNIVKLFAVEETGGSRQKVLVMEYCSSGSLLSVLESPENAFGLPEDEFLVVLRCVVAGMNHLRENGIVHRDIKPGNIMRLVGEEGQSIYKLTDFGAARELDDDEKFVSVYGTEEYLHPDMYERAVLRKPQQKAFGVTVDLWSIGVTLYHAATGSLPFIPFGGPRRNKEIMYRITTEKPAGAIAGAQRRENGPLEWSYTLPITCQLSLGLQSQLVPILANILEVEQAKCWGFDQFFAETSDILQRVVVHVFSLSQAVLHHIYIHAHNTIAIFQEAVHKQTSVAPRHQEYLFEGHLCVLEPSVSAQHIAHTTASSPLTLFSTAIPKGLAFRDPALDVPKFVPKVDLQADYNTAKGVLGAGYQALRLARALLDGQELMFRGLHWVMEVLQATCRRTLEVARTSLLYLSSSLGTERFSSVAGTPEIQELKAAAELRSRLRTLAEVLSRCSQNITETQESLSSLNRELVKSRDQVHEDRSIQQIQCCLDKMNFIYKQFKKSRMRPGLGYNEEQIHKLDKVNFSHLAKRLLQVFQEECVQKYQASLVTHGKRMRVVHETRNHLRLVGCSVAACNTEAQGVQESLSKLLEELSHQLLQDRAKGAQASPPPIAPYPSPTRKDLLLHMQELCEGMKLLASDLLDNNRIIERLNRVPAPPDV

[15] = molecular target: Tyrosine-protein kinase ITK/TSK (Homo sapiens) (UniProt Q08881); conditions: Compound concentration 1000.0 nM
[16] = tested on: Mast/stem cell growth factor receptor Kit (Homo sapiens), P10721 [A829P]; conditions: Compound concentration 1000.0 nM
[17] = tested on: Mast/stem cell growth factor receptor Kit (Homo sapiens), P10721 [L576P]; conditions: Compound concentration 1000.0 nM
[18] = molecular target: Mast/stem cell growth factor receptor Kit (Homo sapiens) (UniProt P10721); conditions: Compound concentration 1000.0 nM
[19] = molecular target: Serine/threonine-protein kinase MARK2 (Homo sapiens) (UniProt Q7KZI7); conditions: Compound concentration 1000.0 nM
[20] = molecular target: Dual specificity mitogen-activated protein kinase kinase 5 (Homo sapiens) (UniProt Q13163); conditions: Compound concentration 1000.0 nM
Chain of Dual specificity mitogen-activated protein kinase kinase 5 (Homo sapiens) (Q13163 whole entry): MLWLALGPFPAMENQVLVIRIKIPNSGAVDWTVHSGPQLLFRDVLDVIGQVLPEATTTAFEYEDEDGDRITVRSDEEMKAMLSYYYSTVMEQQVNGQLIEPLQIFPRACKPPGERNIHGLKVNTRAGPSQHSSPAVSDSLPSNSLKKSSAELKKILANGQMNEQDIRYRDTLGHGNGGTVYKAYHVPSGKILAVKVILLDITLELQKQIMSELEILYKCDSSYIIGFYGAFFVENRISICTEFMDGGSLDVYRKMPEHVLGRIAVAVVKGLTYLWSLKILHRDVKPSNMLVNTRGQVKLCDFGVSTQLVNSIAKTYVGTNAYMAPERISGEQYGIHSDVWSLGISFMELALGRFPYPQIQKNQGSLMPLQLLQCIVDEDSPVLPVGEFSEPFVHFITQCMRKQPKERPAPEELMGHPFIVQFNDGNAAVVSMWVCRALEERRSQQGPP

[21] = molecular target: Tyrosine-protein kinase Mer (Homo sapiens) (UniProt Q12866); conditions: Compound concentration 1000.0 nM
[22] = tested on: Hepatocyte growth factor receptor (Homo sapiens), P08581 [Y1235D]; conditions: Compound concentration 1000.0 nM
[23] = molecular target: Myosin-IIIb (Homo sapiens) (UniProt Q8WXR4); conditions: Compound concentration 1000.0 nM
[24] = molecular target: Serine/threonine-protein kinase Nek2 (Homo sapiens) (UniProt P51955); conditions: Compound concentration 1000.0 nM
[25] = molecular target: Serine/threonine-protein kinase Nek3 (Homo sapiens) (UniProt P51956); conditions: Compound concentration 1000.0 nM
Chain of Serine/threonine-protein kinase Nek3 (Homo sapiens) (P51956 whole entry): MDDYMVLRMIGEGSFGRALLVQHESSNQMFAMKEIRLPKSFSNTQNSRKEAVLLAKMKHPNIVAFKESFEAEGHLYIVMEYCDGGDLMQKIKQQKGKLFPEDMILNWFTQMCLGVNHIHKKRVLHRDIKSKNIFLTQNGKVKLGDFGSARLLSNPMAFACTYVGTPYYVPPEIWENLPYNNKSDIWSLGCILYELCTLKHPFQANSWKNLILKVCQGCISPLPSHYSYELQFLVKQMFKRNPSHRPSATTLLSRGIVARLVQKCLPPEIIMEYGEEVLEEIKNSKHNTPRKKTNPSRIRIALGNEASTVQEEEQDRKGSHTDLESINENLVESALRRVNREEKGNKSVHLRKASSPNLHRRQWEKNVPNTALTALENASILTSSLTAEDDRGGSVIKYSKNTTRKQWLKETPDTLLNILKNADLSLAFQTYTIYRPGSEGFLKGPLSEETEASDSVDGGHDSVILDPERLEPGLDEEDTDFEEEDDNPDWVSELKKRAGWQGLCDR

[26] = molecular target: Serine/threonine-protein kinase PAK 2 (Homo sapiens) (UniProt Q13177); conditions: Compound concentration 1000.0 nM
Chain of Serine/threonine-protein kinase PAK 2 (Homo sapiens) (Q13177 whole entry): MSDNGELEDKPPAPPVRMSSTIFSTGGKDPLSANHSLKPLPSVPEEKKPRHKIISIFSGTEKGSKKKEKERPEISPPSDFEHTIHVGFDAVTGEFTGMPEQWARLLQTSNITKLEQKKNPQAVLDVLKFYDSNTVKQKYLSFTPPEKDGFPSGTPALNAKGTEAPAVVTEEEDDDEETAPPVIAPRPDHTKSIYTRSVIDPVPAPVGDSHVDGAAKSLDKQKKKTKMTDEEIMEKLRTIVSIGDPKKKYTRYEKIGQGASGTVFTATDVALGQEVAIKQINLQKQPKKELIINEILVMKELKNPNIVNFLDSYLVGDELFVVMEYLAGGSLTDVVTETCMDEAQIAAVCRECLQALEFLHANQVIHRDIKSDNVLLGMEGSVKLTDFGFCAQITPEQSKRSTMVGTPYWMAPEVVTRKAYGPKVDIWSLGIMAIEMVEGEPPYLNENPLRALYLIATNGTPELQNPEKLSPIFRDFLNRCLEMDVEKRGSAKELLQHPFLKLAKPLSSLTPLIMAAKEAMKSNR

[27] = molecular target: Serine/threonine-protein kinase PAK 4 (Homo sapiens) (UniProt O96013); conditions: Compound concentration 1000.0 nM
[28] = molecular target: Platelet-derived growth factor receptor alpha (Homo sapiens) (UniProt P16234); conditions: Compound concentration 1000.0 nM
[29] = molecular target: Platelet-derived growth factor receptor beta (Homo sapiens) (UniProt P09619); conditions: Compound concentration 1000.0 nM
[30] = molecular target: Cyclin-dependent kinase 2 homolog (Plasmodium falciparum (isolate 3D7)) (UniProt P61075); conditions: Compound concentration 1000.0 nM
[31] = molecular target: Phosphatidylinositol 4-phosphate 5-kinase type-1 alpha (Homo sapiens) (UniProt Q99755); conditions: Compound concentration 1000.0 nM
[32] = molecular target: Membrane-associated tyrosine- and threonine-specific cdc2-inhibitory kinase (Homo sapiens) (UniProt Q99640); conditions: Compound concentration 1000.0 nM
[33] = molecular target: Serine/threonine-protein kinase PknB (Mycobacterium tuberculosis) (UniProt P9WI81); conditions: Compound concentration 1000.0 nM
[34] = molecular target: Serine/threonine-protein kinase PRP4 homolog (Homo sapiens) (UniProt Q13523); conditions: Compound concentration 1000.0 nM
[35] = molecular target: Serine/threonine-protein kinase Sgk1 (Homo sapiens) (UniProt O00141); conditions: Compound concentration 1000.0 nM
[36] = molecular target: Tyrosine-protein kinase Srms (Homo sapiens) (UniProt Q9H3Y6); conditions: Compound concentration 1000.0 nM
[37] = molecular target: Serine/threonine-protein kinase TAO1 (Homo sapiens) (UniProt Q7L7X3); conditions: Compound concentration 1000.0 nM
[38] = molecular target: TGF-beta receptor type-1 (Homo sapiens) (UniProt P36897); conditions: Compound concentration 1000.0 nM
[39] = molecular target: Testis-specific serine/threonine-protein kinase 3 (Homo sapiens) (UniProt Q96PN8); conditions: Compound concentration 1000.0 nM
Chain of Testis-specific serine/threonine-protein kinase 3 (Homo sapiens) (Q96PN8 whole entry): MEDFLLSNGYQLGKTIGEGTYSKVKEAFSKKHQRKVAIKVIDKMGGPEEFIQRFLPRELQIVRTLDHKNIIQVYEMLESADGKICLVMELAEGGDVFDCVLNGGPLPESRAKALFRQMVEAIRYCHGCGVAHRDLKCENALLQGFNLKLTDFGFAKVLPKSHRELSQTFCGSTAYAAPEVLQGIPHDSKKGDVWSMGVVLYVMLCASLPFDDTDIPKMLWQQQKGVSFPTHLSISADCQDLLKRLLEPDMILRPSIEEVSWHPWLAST

[40] = molecular target: Serine/threonine-protein kinase WNK4 (Homo sapiens) (UniProt Q96J92); conditions: Compound concentration 1000.0 nM
[41] = molecular target: Serine/threonine-protein kinase 32B (Homo sapiens) (UniProt Q9NY57); conditions: Compound concentration 1000.0 nM
[42] = molecular target: Histamine H4 receptor (Homo sapiens) (UniProt Q9H3N8); conditions: Compound concentration 10.0 uM
[43] = molecular target: Alpha-2B adrenergic receptor (Homo sapiens) (UniProt P18089); conditions: Compound concentration 10.0 uM
Chain of Alpha-2B adrenergic receptor (Homo sapiens) (P18089 whole entry): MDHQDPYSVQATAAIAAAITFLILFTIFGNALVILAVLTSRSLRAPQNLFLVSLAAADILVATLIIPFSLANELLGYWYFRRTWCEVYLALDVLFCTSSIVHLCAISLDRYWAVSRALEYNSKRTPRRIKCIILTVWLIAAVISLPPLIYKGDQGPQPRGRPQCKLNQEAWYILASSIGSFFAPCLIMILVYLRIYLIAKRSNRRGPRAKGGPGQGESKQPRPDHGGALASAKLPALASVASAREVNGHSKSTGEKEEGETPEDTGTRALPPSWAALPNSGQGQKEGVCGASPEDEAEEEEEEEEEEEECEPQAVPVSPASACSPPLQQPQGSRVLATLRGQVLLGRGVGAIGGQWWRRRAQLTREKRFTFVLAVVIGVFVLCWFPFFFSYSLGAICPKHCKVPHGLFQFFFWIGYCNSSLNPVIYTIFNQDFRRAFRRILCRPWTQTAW

[44] = molecular target: Alpha-2C adrenergic receptor (Homo sapiens) (UniProt P18825); conditions: Compound concentration 10.0 uM
Chain of Alpha-2C adrenergic receptor (Homo sapiens) (P18825 whole entry): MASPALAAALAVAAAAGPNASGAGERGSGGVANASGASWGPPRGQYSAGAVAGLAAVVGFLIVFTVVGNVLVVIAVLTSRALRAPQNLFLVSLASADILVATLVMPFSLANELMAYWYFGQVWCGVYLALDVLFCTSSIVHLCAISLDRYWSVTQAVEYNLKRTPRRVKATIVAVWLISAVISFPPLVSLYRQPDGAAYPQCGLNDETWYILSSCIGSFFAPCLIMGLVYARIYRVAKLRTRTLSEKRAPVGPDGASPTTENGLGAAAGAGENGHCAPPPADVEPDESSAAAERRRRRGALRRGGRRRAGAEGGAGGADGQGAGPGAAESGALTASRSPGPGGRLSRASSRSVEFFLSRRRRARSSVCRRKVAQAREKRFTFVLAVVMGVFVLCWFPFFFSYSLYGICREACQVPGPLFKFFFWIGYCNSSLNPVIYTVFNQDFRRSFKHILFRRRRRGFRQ

[45] = molecular target: Sigma intracellular receptor 2 (Homo sapiens, UniProt Q5BJF2); conditions: Compound concentration 10.0 uM

Chain of ALK tyrosine kinase receptor (Homo sapiens), Q9UM73 [C1156Y] (Q9UM73 whole entry C1156Y, looked up): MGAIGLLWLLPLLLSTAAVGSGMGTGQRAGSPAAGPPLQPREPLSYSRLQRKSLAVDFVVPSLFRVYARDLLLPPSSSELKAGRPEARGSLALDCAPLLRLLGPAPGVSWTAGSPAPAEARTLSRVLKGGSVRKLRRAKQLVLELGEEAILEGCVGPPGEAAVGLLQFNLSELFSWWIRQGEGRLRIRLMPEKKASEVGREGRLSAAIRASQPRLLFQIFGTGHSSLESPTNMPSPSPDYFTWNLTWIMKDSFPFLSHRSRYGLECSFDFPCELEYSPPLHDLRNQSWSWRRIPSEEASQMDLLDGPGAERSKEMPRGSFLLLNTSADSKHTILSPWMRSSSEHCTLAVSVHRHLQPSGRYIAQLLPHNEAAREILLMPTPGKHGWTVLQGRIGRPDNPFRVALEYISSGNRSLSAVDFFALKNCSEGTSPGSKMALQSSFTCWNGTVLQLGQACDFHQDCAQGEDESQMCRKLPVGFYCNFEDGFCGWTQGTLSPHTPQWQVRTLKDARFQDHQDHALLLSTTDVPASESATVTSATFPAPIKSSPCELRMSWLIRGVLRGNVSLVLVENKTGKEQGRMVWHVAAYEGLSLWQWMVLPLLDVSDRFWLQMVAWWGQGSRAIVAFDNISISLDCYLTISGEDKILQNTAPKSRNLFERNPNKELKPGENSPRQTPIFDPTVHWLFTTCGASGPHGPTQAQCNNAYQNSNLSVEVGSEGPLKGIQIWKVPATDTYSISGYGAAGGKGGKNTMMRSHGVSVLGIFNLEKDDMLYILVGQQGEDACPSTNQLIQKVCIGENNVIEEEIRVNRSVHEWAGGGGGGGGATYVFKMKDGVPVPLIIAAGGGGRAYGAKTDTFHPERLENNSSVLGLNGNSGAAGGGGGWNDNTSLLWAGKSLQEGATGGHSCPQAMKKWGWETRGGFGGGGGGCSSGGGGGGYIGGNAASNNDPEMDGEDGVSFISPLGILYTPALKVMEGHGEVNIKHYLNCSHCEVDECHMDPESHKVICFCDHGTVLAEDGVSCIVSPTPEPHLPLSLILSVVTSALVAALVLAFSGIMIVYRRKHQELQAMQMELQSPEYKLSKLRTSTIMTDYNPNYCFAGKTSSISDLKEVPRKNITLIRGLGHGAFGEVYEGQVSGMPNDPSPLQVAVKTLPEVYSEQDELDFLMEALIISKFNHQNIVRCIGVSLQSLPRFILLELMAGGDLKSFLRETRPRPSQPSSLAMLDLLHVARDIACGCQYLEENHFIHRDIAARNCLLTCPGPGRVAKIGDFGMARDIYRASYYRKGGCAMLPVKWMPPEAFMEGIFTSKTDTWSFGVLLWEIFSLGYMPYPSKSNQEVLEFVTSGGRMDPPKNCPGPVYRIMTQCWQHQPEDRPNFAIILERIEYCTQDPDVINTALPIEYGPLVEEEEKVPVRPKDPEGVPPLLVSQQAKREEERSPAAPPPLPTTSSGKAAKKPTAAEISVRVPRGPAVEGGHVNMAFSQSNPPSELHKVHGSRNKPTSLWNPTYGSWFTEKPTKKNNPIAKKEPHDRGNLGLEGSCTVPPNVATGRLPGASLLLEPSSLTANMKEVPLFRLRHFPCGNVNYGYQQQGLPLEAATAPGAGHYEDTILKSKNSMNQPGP

Question: Which results are given for `CO[C@@H](C)c1c(Nc2ccc([C@@H](N(C)C(=O)C3CCS(=O)(=O)CC3)C(F)(F)F)cc2)cnc2cc(Cl)nn12` [NVS-MALT1-C]?
Answer: residual activity [1]: 100%; residual activity [2]: 79%; residual activity [3]: 100%; residual activity [4]: 100%; residual activity [5]: 88%; residual activity [6]: 96%; residual activity [7]: 88%; residual activity [8]: 88%; residual activity [9]: 92%; residual activity [10]: 100%; residual activity [11]: 66%; residual activity [12]: 94%; residual activity [13]: 96%; residual activity [14]: 100%; residual activity [15]: 94%; residual activity [16]: 100%; residual activity [17]: 100%; residual activity [18]: 85%; residual activity [19]: 100%; residual activity [20]: 91%; residual activity [21]: 79%; residual activity [22]: 85%; residual activity [23]: 100%; residual activity [24]: 94%; residual activity [25]: 61%; residual activity [26]: 81%; residual activity [27]: 100%; residual activity [28]: 100%; residual activity [29]: 100%; residual activity [30]: 100%; residual activity [31]: 89%; residual activity [32]: 99%; residual activity [33]: 100%; residual activity [34]: 91%; residual activity [35]: 89%; residual activity [36]: 100%; residual activity [37]: 100%; residual activity [38]: 95%; residual activity [39]: 79%; residual activity [40]: 99%; residual activity [41]: 95%; inhibition [42]: -8.46%; inhibition [43]: 1.55%; inhibition [44]: 1.97%; inhibition [45]: 57.1%

Question: Which residual activity [1] does the source give for `CO[C@@H](C)c1c(Nc2ccc([C@H](N(C)C(=O)C3CCS(=O)(=O)CC3)C(F)(F)F)cc2)cnc2cc(Cl)nn12` [NVS-MALT1] here?
Answer: 100%

Question: What about the residual activity [2] of the same compound?
Answer: 89%

Question: And the residual activity [3]?
Answer: 100%

Question: And the residual activity [4]?
Answer: 88%

Question: And the residual activity [5]?
Answer: 90%

Question: What about the residual activity [6] of the same compound?
Answer: 39%

Question: And the residual activity [7]?
Answer: 90%

Question: What about the residual activity [8] of the same compound?
Answer: 95%

Question: And the residual activity [9]?
Answer: 76%

Question: And the residual activity [10]?
Answer: 100%

Question: What about the residual activity [11] of the same compound?
Answer: 71%

Question: What about the residual activity [12] of the same compound?
Answer: 100%

Question: What about the residual activity [13] of the same compound?
Answer: 70%

Question: And the residual activity [14]?
Answer: 100%

Question: What about the residual activity [15] of the same compound?
Answer: 88%

Question: And the residual activity [16]?
Answer: 100%

Question: And the residual activity [17]?
Answer: 98%

Question: What about the residual activity [18] of the same compound?
Answer: 98%

Question: And the residual activity [19]?
Answer: 100%

Question: And the residual activity [20]?
Answer: 60%

Question: And the residual activity [21]?
Answer: 87%

Question: What about the residual activity [22] of the same compound?
Answer: 100%

Question: And the residual activity [23]?
Answer: 82%

Question: And the residual activity [24]?
Answer: 100%

Question: What about the residual activity [25] of the same compound?
Answer: 40%

Question: What about the residual activity [26] of the same compound?
Answer: 76%

Question: What about the residual activity [27] of the same compound?
Answer: 95%

Question: And the residual activity [28]?
Answer: 100%

Question: And the residual activity [29]?
Answer: 100%

Question: What about the residual activity [30] of the same compound?
Answer: 100%

Question: And the residual activity [31]?
Answer: 100%

Question: What about the residual activity [32] of the same compound?
Answer: 85%

Question: What about the residual activity [33] of the same compound?
Answer: 87%

Question: And the residual activity [34]?
Answer: 100%

Question: What about the residual activity [35] of the same compound?
Answer: 94%

Question: What about the residual activity [36] of the same compound?
Answer: 95%

Question: What about the residual activity [37] of the same compound?
Answer: 100%

Question: And the residual activity [38]?
Answer: 94%

Question: What about the residual activity [39] of the same compound?
Answer: 81%

Question: What about the residual activity [40] of the same compound?
Answer: 99%

Question: And the residual activity [41]?
Answer: 89%

Question: And the inhibition [42]?
Answer: 3.84%

Question: And the inhibition [43]?
Answer: 0.32%

Question: And the inhibition [44]?
Answer: 4.48%

Question: What about the inhibition [45] of the same compound?
Answer: 49.1%
